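Five concentrations, 48 hours, 96-well plates. TGI is the concentration that stops growth completely.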

Among the data in PubChem BioAssay (NCI) are TGI values, retold here.

Test systems include CAKI-1 renal; DU-145 prostate; HT29 colon; M14 melanoma; MALME-3M melanoma; MCF7 breast; MDA-MB-231 breast; MDA-MB-435; NCI-H23 lung; OVCAR-8 ovarian; SF-539 CNS; SK-MEL-2 melanoma; SK-MEL-5 melanoma; SK-OV-3 ovarian; TK-10 renal; U251 CNS; UACC-257 melanoma; UO-31 renal; HCT-116 colon; MOLT-4 leukemia.
Holding throughout (assay): growth of human tumour cells (NCI), 48 h

Take `CN(C)CCCNc1ccc2c(=O)n(CCN(C)C)c(=O)n3c4ccccc4c(=O)c1c23`: the TGI in the experiment on CAKI-1 renal was 944 nM; with DU-145 prostate, 0.511 µM; in the experiment with HT29 colon it was 0.907 µM; in the experiment on M14 melanoma, 1590 nM; with MALME-3M melanoma, 3.99 µM; with MCF7 breast, 565 nM. Besides, the TGI in the experiment on MDA-MB-231 breast amounted to 496 nM; in the experiment on MDA-MB-435, 885 nM; with NCI-H23 lung it was 1.19 µM; in the experiment on OVCAR-8 ovarian it was 3.59 µM; in the experiment with SF-539 CNS, 2020 nM; in the experiment with SK-MEL-2 melanoma, 2.52 µM. Moreover, the TGI was determined as 2190 nM in the experiment on SK-MEL-5 melanoma; 4.9 µM in the experiment with SK-OV-3 ovarian; 2.28 µM with TK-10 renal; 2150 nM in the experiment with U251 CNS; 2.05 µM with UACC-257 melanoma; 2080 nM in the experiment on UO-31 renal.

`Nc1c2ccccc2nc2ccc3c(=O)cc(-c4ccccc4)oc3c12`: the TGI with CAKI-1 renal was 2630 nM; with DU-145 prostate it was 3.74 µM; in the experiment with HCT-116 colon it was 0.306 µM; in the experiment on HT29 colon, 1.86 µM; in the experiment on M14 melanoma, 2670 nM; in the experiment on MALME-3M melanoma, 3.23 µM. Further, the TGI in the experiment with MCF7 breast was 2050 nM; in the experiment on MDA-MB-231 breast it was 2520 nM; with MDA-MB-435 it was 2390 nM; in the experiment on NCI-H23 lung, 3.52 µM; with OVCAR-8 ovarian, 1.89 µM; with SF-539 CNS it was 2340 nM. The TGI in the experiment on SK-MEL-2 melanoma is 3.65 µM; in the experiment with SK-OV-3 ovarian, 3.48 µM; in the experiment on TK-10 renal it was 3.52 µM; in the experiment on U251 CNS, 1460 nM; in the experiment on UACC-257 melanoma, 3.39 µM; in the experiment on UO-31 renal, 2860 nM.

Regarding `CCO/C=N\c1c(C#N)c(-c2ccc(Cl)cc2)cn1-c1ccc(C)cc1`, the TGI is above 100000 nM in the experiment on CAKI-1 renal; above 100 µM in the experiment on DU-145 prostate; above 100 µM in the experiment with HCT-116 colon; above 100 µM with HT29 colon; above 100000 nM with M14 melanoma; above 100 µM in the experiment on MALME-3M melanoma. The TGI was above 100000 nM in the experiment with MCF7 breast; above 100000 nM in the experiment with MDA-MB-231 breast; above 100000 nM with MDA-MB-435; above 100 µM in the experiment on NCI-H23 lung; above 100 µM in the experiment with OVCAR-8 ovarian; above 100000 nM in the experiment with SF-539 CNS. Besides, the TGI in the experiment with SK-MEL-2 melanoma was above 100 µM; in the experiment with SK-MEL-5 melanoma, above 100000 nM; in the experiment with SK-OV-3 ovarian, above 100 µM; with TK-10 renal it was above 100 µM; with U251 CNS it was above 100000 nM; in the experiment with UACC-257 melanoma, above 100 µM. This compound registered a TGI with UO-31 renal above 100000 nM.

For the compound `CC(O)c1cc2c(s1)C(=O)c1ccsc1C2=O` (stereo unspecified), the TGI was determined as 1960 nM in the experiment with CAKI-1 renal; 0.0947 µM in the experiment on DU-145 prostate; 2.72 µM in the experiment on HCT-116 colon; 241 nM with M14 melanoma; 0.0449 µM in the experiment with MALME-3M melanoma; 320 nM with MCF7 breast. Also, the TGI in the experiment on MDA-MB-231 breast amounted to 624 nM; in the experiment with MDA-MB-435 it was 26 nM; in the experiment with MOLT-4 leukemia, 0.594 µM; in the experiment with NCI-H23 lung, 0.0304 µM; in the experiment on OVCAR-8 ovarian it was 1.01 µM; in the experiment on SF-539 CNS, 158 nM. For the same compound, the TGI in the experiment with SK-MEL-2 melanoma came out at 0.264 µM; in the experiment on SK-MEL-5 melanoma, 19.8 nM; in the experiment on SK-OV-3 ovarian it was 5.46 µM; with TK-10 renal, 1.32 µM; with U251 CNS, 415 nM; in the experiment on UACC-257 melanoma, 0.0688 µM. The TGI with UO-31 renal came out at 413 nM.

Regarding `CCN(CC)c1ccc2cc(C(N)=S)c(=N)oc2c1`, the TGI in the experiment on CAKI-1 renal was above 100000 nM; in the experiment with DU-145 prostate it was above 100 µM; in the experiment with HCT-116 colon, above 100 µM; in the experiment on HT29 colon, above 100 µM; in the experiment with M14 melanoma, above 100000 nM; in the experiment on MALME-3M melanoma, above 100 µM. The TGI in the experiment on MCF7 breast was above 100000 nM; in the experiment on MDA-MB-231 breast, above 100000 nM; in the experiment with MDA-MB-435 it was above 100000 nM; in the experiment on MOLT-4 leukemia it was above 100 µM; with OVCAR-8 ovarian, above 100 µM; with SF-539 CNS, above 100000 nM. Besides, the TGI was above 100 µM in the experiment with SK-MEL-2 melanoma; above 100000 nM in the experiment on SK-MEL-5 melanoma; above 100 µM in the experiment with SK-OV-3 ovarian; above 100 µM in the experiment with TK-10 renal; above 100000 nM with U251 CNS; above 100 µM in the experiment with UACC-257 melanoma. The TGI in the experiment on UO-31 renal was above 100000 nM.

For `Oc1cc2c3c(c1)CCCN3CCC2`, the TGI was above 10000 nM in the experiment with CAKI-1 renal; above 10 µM with DU-145 prostate; above 10 µM with HCT-116 colon; above 10 µM with HT29 colon; above 10000 nM with M14 melanoma; above 10 µM with MALME-3M melanoma. In addition, the TGI in the experiment with MCF7 breast is above 10000 nM; in the experiment with MDA-MB-231 breast, above 10000 nM; in the experiment on MDA-MB-435 it was above 10000 nM; in the experiment with MOLT-4 leukemia, above 10 µM; in the experiment on NCI-H23 lung, above 10 µM; in the experiment with OVCAR-8 ovarian it was above 10 µM. Moreover, the TGI is above 10000 nM in the experiment with SF-539 CNS; above 10 µM in the experiment with SK-MEL-2 melanoma; above 10000 nM in the experiment on SK-MEL-5 melanoma; above 10 µM with SK-OV-3 ovarian; above 10 µM in the experiment on TK-10 renal; above 10000 nM in the experiment on U251 CNS. In the experiment with UACC-257 melanoma, the TGI was above 10 µM.

`COc1ccc(-c2c3c(cc4cc5c(cc24)OCO5)C(=O)OC3)cc1OC`: the TGI was above 63400 nM in the experiment with CAKI-1 renal; above 100 µM in the experiment with DU-145 prostate; 12.1 µM with HCT-116 colon; 6.55 µM with HT29 colon; 1160 nM with M14 melanoma; 2.92 µM with MALME-3M melanoma. The TGI in the experiment with MCF7 breast worked out at 31400 nM; in the experiment with MDA-MB-231 breast it was 25400 nM; in the experiment with MDA-MB-435, 11500 nM; with MOLT-4 leukemia, 20.4 µM; with NCI-H23 lung, 26.5 µM; in the experiment with SF-539 CNS it was 24600 nM. Also, the TGI in the experiment on SK-MEL-2 melanoma is 4.91 µM; in the experiment with SK-MEL-5 melanoma it was 680 nM; in the experiment on SK-OV-3 ovarian it was above 62.1 µM; in the experiment with TK-10 renal, above 100 µM; in the experiment with U251 CNS, 22000 nM; with UACC-257 melanoma, 5.05 µM. Also, the TGI in the experiment on UO-31 renal came to 14100 nM.
